These are literature values, as cited in patent EP2479272A1, “METHOD FOR PRODUCING MONATIN” (Ajinomoto Co., Inc., priority 2010, dated 2012).

The conditions of the data set: compared with sucrose; from Patent Document 1.

For the compound `N[C@@H](CC(O)(Cc1c[nH]c2ccccc12)C(=O)O)C(=O)O` (stereo partly shown) [Monatin, 4-(indole-3-yl-methyl)-4-hydroxy-glutamic acid], the sweetness entry was “one thousand and several hundreds times sweeter than sucrose”.
